The values that follow come from ChEMBL document CHEMBL3046754, “New brassinosteroid analogs having nitrogenated functionalities at C3 to provide more information about the brassinosteroidreceptor interaction” (2004).

Molecules are shown by their SMILES.

What all share (format): functional
Assay [1] relates to Oryza sativa. Put plainly: Growth regulating activity in Oryza sativa (rice) Bahia cultivar seedlings assessed as interior angle between leaf lamina of second leaf and its leaf sheath at 1 ug/plant applied onto second lamina joint of plant sheath measured after 2 days by Oryza sativa lamina inclination test.
In assay [2] the test system is Oryza sativa. As to the kind of experiment: Growth regulating activity in Oryza sativa (rice) Bahia cultivar seedlings assessed as interior angle between leaf lamina of second leaf and its leaf sheath at 0.5 ug/plant applied onto second lamina joint of plant sheath measured after 2 days by Oryza sativa lamina inclination test.
The subject of assay [3] is Oryza sativa. As to the kind of experiment: Growth regulating activity in Oryza sativa (rice) Bahia cultivar seedlings assessed as interior angle between leaf lamina of second leaf and its leaf sheath at 0.1 ug/plant applied onto second lamina joint of plant sheath measured after 2 days by Oryza sativa lamina inclination test.
For assay [4], the system named is Oryza sativa. Put plainly: Growth regulating activity in Oryza sativa (rice) Bahia cultivar seedlings assessed as interior angle between leaf lamina of second leaf and its leaf sheath at 0.01 ug/plant applied onto second lamina joint of plant sheath measured after 2 days by Oryza sativa lamina inclination test.
Assay [5] concerns Oryza sativa. Put plainly: Growth regulating activity in Oryza sativa (rice) Bahia cultivar seedlings assessed as interior angle between leaf lamina of second leaf and its leaf sheath at 0.05 ug/plant applied onto second lamina joint of plant sheath measured after 2 days by Oryza sativa lamina inclination test.
Assay [6] has as its system Oryza sativa. Put plainly: Growth regulating activity in Oryza sativa (rice) Bahia cultivar seedlings assessed as interior angle between leaf lamina of second leaf and its leaf sheath at 0.02 ug/plant applied onto second lamina joint of plant sheath measured after 2 days by Oryza sativa lamina inclination test.

Consider `CC[C@@H](C(C)C)[C@H](O)[C@@H](O)[C@@H](C)[C@H]1CC[C@H]2[C@@H]3CC(=O)[C@H]4C[C@H](N)CC[C@]4(C)[C@H]3CC[C@]12C`, for which the Activity with Oryza sativa [1] is recorded as 3 degree.
Same read-out and setting: under `CC[C@@H](C(C)C)[C@H](O)[C@@H](O)[C@@H](C)[C@H]1CC[C@H]2[C@@H]3CC(=O)[C@H]4C[C@H](N=[N+]=[N-])CC[C@]4(C)[C@H]3CC[C@]12C` stands 1 degree.
Consider `CC[C@@H](C(C)C)[C@H](O)[C@@H](O)[C@@H](C)[C@H]1CC[C@H]2[C@@H]3COC(=O)[C@H]4C[C@H](N=[N+]=[N-])CC[C@]4(C)[C@H]3CC[C@]12C`, for which the figures for the Activity in the assay on Oryza sativa [2] and in the assay on Oryza sativa [1] were 17 degree and 48 degree, respectively.
With `CC[C@@H](C(C)C)[C@@H](O)[C@H](O)[C@@H](C)[C@H]1CC[C@H]2[C@@H]3COC(=O)[C@H]4C[C@H](N)CC[C@]4(C)[C@H]3CC[C@]12C`, the Activity turned out to be 31 degree in the assay with Oryza sativa [2], 55 degree in the assay on Oryza sativa [1] and 16 degree in the assay with Oryza sativa [3].
`CC[C@@H](C(C)C)[C@@H](O)[C@H](O)[C@@H](C)[C@H]1CC[C@H]2[C@@H]3CC(=O)[C@H]4C[C@H](N=[N+]=[N-])CC[C@]4(C)[C@H]3CC[C@]12C`: the Activity is 17 degree in the assay on Oryza sativa [4]; 64 degree in the assay on Oryza sativa [2]; 75 degree in the assay with Oryza sativa [1]; 30 degree in the assay on Oryza sativa [3]; 24 degree in the assay with Oryza sativa [5].
Consider `CC[C@@H](C(C)C)[C@H](O)[C@@H](O)[C@@H](C)[C@H]1CC[C@H]2[C@@H]3COC(=O)[C@H]4C[C@H](N)CC[C@]4(C)[C@H]3CC[C@]12C`, for which, in the assay on Oryza sativa [1], the Activity is recorded as 5 degree.
Turning to `CC[C@@H](C(C)C)[C@@H](O)[C@H](O)[C@@H](C)[C@H]1CC[C@H]2[C@@H]3COC(=O)[C@H]4C[C@H](N=[N+]=[N-])CC[C@]4(C)[C@H]3CC[C@]12C`, the Activity with Oryza sativa [4] amounted to 37 degree; with Oryza sativa [2] it was 94 degree; in the assay with Oryza sativa [1], 106 degree; with Oryza sativa [6] it was 44 degree; with Oryza sativa [3], 86 degree; in the assay on Oryza sativa [5] it was 74 degree.
Consider `CC[C@@H](C(C)C)[C@@H](O)[C@H](O)[C@@H](C)[C@H]1CC[C@H]2[C@@H]3CC(=O)[C@H]4C[C@H](N)CC[C@]4(C)[C@H]3CC[C@]12C`, for which, in the assay with Oryza sativa [1], the Activity came to 23 degree.
As to `CC[C@@H](C(C)C)[C@@H](O)[C@H](O)[C@@H](C)[C@H]1CC[C@H]2[C@@H]3CC(=O)[C@H]4C[C@H](O)CC[C@]4(C)[C@H]3CC[C@]12C`, the Activity with Oryza sativa [4] is on record as 46 degree; in the assay on Oryza sativa [2] it was 76 degree; with Oryza sativa [1], 85 degree; in the assay with Oryza sativa [3], 59 degree; with Oryza sativa [5], 65 degree.
